Results as given in US7141564B2, “Nitrogen-containing bicyclic heterocycles for use as antibacterials” (priority 2001, dated 2006).
Where a name gives a salt, the structure may show the parent alone.

Test: MIC of test compounds against various organisms
Format: cell-based
Details: versus all these organisms (panel of 10 strains); read-out: MIC

MIC [µg/mL] | Compound
≤ 4 | COc1ccc2nccc(NC(=O)[C@]3(O)CC[C@@H](NCc4ccc5c(n4)NC(=O)CS5)CC3)c2c1 [Example 391, 1-Hydroxy-t-4-[(3-oxo-3,4-dihydro-2H-pyrido[3,2-b][1,4]thiazin-6-ylmethyl)-amino-r-cyclohexanecarboxylic acid (6-methoxy-quinolin-4-yl)-amidedihydrochloride]
≤ 4 | COc1ccc2nccc(NC(=O)[C@H]3CC[C@H](NCc4cc5c(cc4F)SCC(=O)N5)CC3)c2n1 [Example 34, Trans-4-[(7-Fluoro-3-oxo-3,4-dihydro-2H-benzo[1,4]thiazin-6-ylmethyl)-amino]-cyclohexanecarboxylic acid (6-methoxy-[1,5]naphthyridin-4-yl)-amide oxalate salt]
≤ 4 | COc1ccc2nccc(NC(=O)[C@H]3CC[C@H](NCc4ccc5snnc5c4)CC3)c2n1 [Example 6, Trans-4-[(Benzo[1,2,3]thiadiazol-5-ylmethyl)-amino]-cyclohexanecarboxylic acid (6-methoxy-[1,5]naphthyridin-4-yl)-amide fumarate salt]
≤ 4 | COc1ccc2nccc(NC(=O)[C@H]3CC[C@H](NCc4ccc5c(c4)OCCO5)CC3)c2n1 [Example 5, Trans-4-[(2,3-Dihydro-benzo[1,4]dioxin-6-ylmethyl)-amino]-cyclohexanecarboxylic acid (6-methoxy-[1,5]naphthyridin-4-yl)-amide fumarate salt]
≤ 4 | COc1ccc2nccc(NC(=O)[C@H]3CC[C@H](NCc4ccc5nsnc5c4)CC3)c2n1 [Example 2, Trans-4-[(Benzo[1,2,5]thiadiazol-5-ylmethyl)-amino]-cyclohexanecarboxylic acid (6-methoxy-[1,5]naphthyridin-4-yl)-amide fumarate salt]
≤ 64 | COc1ccc2nccc(NC(=O)[C@H]3CC[C@H](NCc4ccc5c(n4)OCCO5)CC3)c2n1 [Example 18, Trans-4-[(2,3-Dihydro-[1,4]dioxino[2,3-b]pyridin-6-ylmethyl)-amino]-cyclohexanecarboxylic acid (6-methoxy-[1,5]naphthyridin-4-yl)-amide oxalate salt]
≤ 4 | COc1cc(F)c2nccc(NC(=O)[C@]3(O)CC[C@@H](NCc4ccc5c(n4)NC(=O)CS5)CC3)c2c1 [Example 390, 1-Hydroxy-t-4-[(3-oxo-3,4-dihydro-2H-pyrido[3,2-b][1,4]thiazin-6-ylmethyl)-amino-r-cyclohexanecarboxylic acid (8-fluoro-6-methoxy-quinolin-4-yl)-amidedihydrochloride]
≤ 4 | COc1ccc2nccc(C(O)C[C@H]3CC[C@H](NCc4ccc5c(c4)NC(=O)CS5)CC3)c2c1 (stereo partly drawn) [Example 21, Trans-6-({4-[2-Hydroxy-2-(6-methoxy-quinolin-4-yl)-ethyl]-cyclohexylamino}-methyl)-4-H-benzo[1,4]thiazin-3-one oxalate salt]
≤ 16 | COc1ccc2nccc(NC(=O)[C@H]3CC[C@H](NCc4cnc5scnc5c4)CC3)c2n1 [Example 16, Trans-4-[(Thiazolo[5,4-b]-pyridin-6-ylmethyl)-amino]-cyclohexanecarboxylic acid (6-methoxy-[1,5]naphthyridin-4-yl)-amide oxalate salt]
≤ 4 | COc1ccc2nccc(NC(=O)C3=CCC(NCc4ccc5c(c4)NC(=O)CS5)CC3)c2n1 (racemic) [Example 150, (R/S)-4-[(3-Oxo-3,4-dihydro-2H-benzo-[1,4]thiazin-6ylmethyl)-amino]-cyclohex-1-ene carboxylic acid (6-methoxy-[1,5]naphthyridin-4-yl)-amide oxalate]
≤ 64 | COc1ccc2nccc(NC(=O)[C@H]3CC[C@H](NCc4ccc5c(c4)oc(=O)n5C)CC3)c2n1 [Example 7, Trans-4-[(3-Methyl-2-oxo-2,3-dihydro-benzooxazol-6-ylmethyl)-amino]-cyclohexanecarboxylic acid (6-methoxy-[1,5]naphthyridin-4-yl)-amide oxalate salt]
≤ 4 | COc1ccc2nccc(NC(=O)[C@H]3CC[C@H](NCc4ccc5nsnc5c4)CC3)c2c1 [Example 12, Trans-4-[(Benzo[1,2,5]thiadiazol-5-ylmethyl)-amino]-cyclohexanecarboxylic acid (6-methoxy-quinolin-4-yl)-amide fumarate salt]
≤ 4 | COc1ccc2nccc(NC(=O)[C@H]3CC[C@H](NCc4cc5c(cn4)OCCO5)CC3)c2n1 [Example 19, Trans-4-[(2,3-Dihydro-[1,4]dioxino[2,3-c]pyridin-7-ylmethyl)-amino]-cyclohexanecarboxylic acid (6-methoxy-[1,5]naphthyridin-4-yl)-amide oxalate salt]
≤ 4 | COc1ccc2nccc(NC(=O)[C@H]3CC[C@H](NCc4ccc5c(c4)NC(=O)CS5)CC3)c2n1 [Example 4, Trans-4-[(3-Oxo-3,4-dihydro-2H-benzo[1,4]thiazin-6-ylmethyl)-amino]-cyclohexane carboxylic acid (6-methoxy-[1,5]naphthyridin-4-yl)-amide fumarate salt]
≤ 4 | COc1ccc2nccc(NC(=O)[C@H]3CC[C@H](NCc4cnc5snnc5c4)CC3)c2n1 [Example 32, Trans-4-[([1,2,3]Thiadiazolo[5,4-b]pyridin-6-ylmethyl)-amino]-cyclohexanecarboxylic acid (6-methoxy-[1,5]naphthyridin-4-yl)-amide oxalate]
≤ 4 | COc1ccc2nccc(NC(=O)[C@H]3CC[C@H](NCc4ccc5c(c4)NC(=O)CO5)CC3)c2n1 [Example 8, Trans-4-[(3-Oxo-3,4-dihydro-2H-benzo[1,4]oxazin-6-ylmethyl)-amino]-cyclohexanecarboxylic acid (6-methoxy-[1,5]naphthyridin-4-yl)-amide fumarate salt]
≤ 4 | COc1ccc2nccc(NC(=O)C3=CCC(NCc4cnc5c(c4)NC(=O)CS5)CC3)c2n1 (racemic) [Example 153, (R/S)-4-[(2-Oxo-2,3-dihydro-1H-pyrido[2,3-b][1,4]thiazin-7-ylmethyl)-amino]-cyclohex-1-ene carboxylic acid (6-methoxy-[1,5]naphthyridin-4-yl)-amide oxalate]
≤ 4 | COc1ccc2nccc(NC(=O)[C@H]3CC[C@H](NCc4cc5cccnc5[nH]4)CC3)c2n1 [Example 3, Trans-4-[(1H-Pyrrolo[2,3-b]pyridin-2-ylmethyl)-amino]-cyclohexanecarboxylic acid (6-methoxy-[1,5]naphthyridin4-yl)-amide fumarate salt]
≤ 64 | COc1ccc2nccc(C(=O)C[C@H]3CC[C@H](NCc4ccc5c(c4)OCCO5)CC3)c2c1 [Example 27, Trans-2-{4-[(2,3-Dihydro-benzo[1,4]dioxin-6-ylmethyl)-amino]-cyclohexyl}-1-(6-methoxy-quinolin-4-yl)-ethanone oxalate salt]
≤ 4 | COc1ccc2nccc(NC(=O)[C@]3(O)CC[C@@H](NCc4ccc5c(c4)NC(=O)CS5)CC3)c2n1 [Example 300, 1-Hydroxy-t-4-[(3-oxo-3,4-dihydro-2H-benzo[1,4]thiazin-6-ylmethyl)-amino]-r-cyclohexanecarboxylic Acid (6-methoxy-[1,5]naphthyridin-4-yl)-amide Dihydrochloride]
≤ 4 | COc1ccc2nccc(NC(=O)[C@H]3CC[C@H](NCc4cc5c(c([N+](=O)[O-])c4)OCC(=O)N5)CC3)c2n1 [Example 35, Trans-4-[(8-Nitro-3-oxo-3,4-dihydro-2H-benzo[1,4]oxazin-6-ylmethyl)-amino]-cyclohexanecarboxylic Acid (6-methoxy)-[1,5]naphthyridin-4-yl)-amide Oxalate]
≤ 4 | COc1ccc2nccc(NC(=O)[C@H]3CC[C@H](NCc4cc5c(cc4[N+](=O)[O-])OCO5)CC3)c2n1.O=C(O)C(=O)O [Example 23, Trans-4-[(6-Nitro-benzo[1,3]dioxol-5-ylmethyl)-amino]-cyclohexanecarboxylic acid (6-methoxy-[1,5]naphthyridin-4-yl)-amide oxalate salt]
≤ 4 | COc1ccc2nccc(NC(=O)[C@]3(O)CC[C@@H](NCc4nc5c(cc4Br)SCC(=O)N5)CC3)c2n1 [Example 304, 1-Hydroxy-t-4-[(7-bromo-3-oxo-3,4-dihydro-2H-pyrido[3,2-b][1,4]thiazin-6-ylmethyl)-amino]-r-cyclohexanecarboxylic Acid (6-methoxy-[1,5]naphthyridin-4-yl)-amide Dihydrochloride]
≤ 4 | COc1ccc2nccc(NC(=O)[C@]3(O)CC[C@@H](NCc4cnc5c(c4)NC(=O)CS5)CC3)c2n1 [Example 303, 1-Hydroxy-t-4-[(2-oxo-2,3-dihydro-1H-pyrido[2,3-b][1,4]thiazin-7-ylmethyl)-amino]-r-cyclohexanecarboxylic Acid (6-methoxy-[1,5]naphthyridin-4-yl)-amide Dihydrochloride]
≤ 4 | COc1ccc2nccc(NC(=O)C3=CCC(NCc4cc5c(cc4F)OCC(=O)N5)CC3)c2n1 (racemic) [Example 154, (R/S)-4-[(7-Fluoro-3-oxo-3,4-dihydro-2H-benzo[1,4]oxazin-6-ylmethyl)-amino]-cyclohex-1-ene carboxylic acid (6-methoxy-[1,5]naphthyridin-4-yl)-amide oxalate]
≤ 16 | COc1ccc2nccc(NC(=O)[C@H]3CC[C@H](NCc4cc(=O)n5ccccc5n4)CC3)c2n1 [Example 26, Trans-4-[(4-Oxo-4 H pyrido[1,2-a]pyrimidin-2-ylmethyl)-amino]-cyclohexanecarboxylic acid (6-methoxy-[1,5]naphthyridin-4-yl)-amide oxalate salt]
≤ 16 | COc1ccc2nccc(NC(=O)[C@H]3CC[C@H](NCc4cc5c(cc4N)OCO5)CC3)c2n1 [Example 24, Trans-4-[(6-Amino-benzo[1,3]dioxol-5-ylmethyl)-amino]-cyclohexanecarboxylic acid (6-methoxy-[1,5]naphthyridin-4-yl)-amide dioxalate salt]
≤ 4 | COc1ccc2nccc(NC(=O)[C@H]3CC[C@H](NCc4cc5c(cc4F)OCC(=O)N5)CC3)c2n1 [Example 9]

Compound | MIC [µg/mL]
COc1ccc2nccc(NC(=O)[C@H]3CC[C@H](NCc4cc5cccc(O)c5c(=O)[nH]4)CC3)c2n1 [Example 17, Trans-4-[(8-Hydroxy-1-oxo-1,2-dihydro-isoquinolin-3-ylmethyl)-amino]-cyclohexanecarboxylic acid (6-methoxy-[1,5]naphthyridin-4-yl)-amide dihydrochloride salt] | ≤ 16
